According to the OligoGym collection:
These antisense oligonucleotides have a phosphorothioate backbone; sugars and methylation of C are not fully specified.

Assays:
Conditions in all cases: ASO
PTEN = molecular target: PTEN
INPPL1 = molecular target: INPPL1
BIRC2 = molecular target: BIRC2
RHOC = molecular target: RHOC
Also: test concentration or dose not given here.

Row | Sequence | remaining target (mRNA or protein) (fraction of control) (PTEN) | remaining target (mRNA or protein) (fraction of control) (BIRC2) | other results
1 | GGATAAATATAGGTCAAG | ≥ 1 | – | –
2 | AGAGCAGGGCAGCACAGA | – | – | remaining target (mRNA or protein) (fraction of control) (INPPL1): ≥ 1
3 | GGGAGGTGCCGCCGCCGC | 0.58 | – | –
4 | CTAGTGTTATCAGAAACG | – | ≥ 1 | –
5 | ACCTGGGAAAAGTCTTTG | – | ≥ 1 | –
6 | CATGGCTGATACGGTTCT | – | – | remaining target (mRNA or protein) (fraction of control) (INPPL1): 0.98
7 | GGTTGGCTTTGTCTTTAT | 0.23 | – | –
8 | TCTGGATCAGAGTCAGTG | 0.56 | – | –
9 | GTGGCAGATGGGACAGGG | – | – | remaining target (mRNA or protein) (fraction of control) (INPPL1): ≥ 1
10 | TCTCCTCAGCAGCCAGAG | 0.66 | – | –
11 | CTCCTGGTGTGCTCGTCT | – | – | remaining target (mRNA or protein) (fraction of control) (RHOC): 0.33
12 | TGAAGAATGTATTTACCC | 0.56 | – | –
13 | TCTGTGACTTCCCAATCT | – | – | remaining target (mRNA or protein) (fraction of control) (INPPL1): 0.93
14 | TGGCTGCAGCTTCCGAGA | 0.27 | – | –
15 | CTCAGATTTGAAATGCTA | – | ≥ 1 | –
16 | ATAACAGACCAATTACTG | – | ≥ 1 | –
17 | CATTTCTTCAGCTTGTTT | – | ≥ 1 | –
18 | AGTGAAAAGCACCAAAGA | – | ≥ 1 | –

Row | Sequence | remaining target (mRNA or protein) (fraction of control) (PTEN) | remaining target (mRNA or protein) (fraction of control) (BIRC2) | other results
19 | TTAAGGACTATTCAGCTA | – | ≥ 1 | –
20 | CGCTTGGCTCTGGACCGC | 0.16 | – | –
21 | CCCGCGGCTGCTCACAGG | 0.19 | – | –
22 | ATTACACCAGTTCGTCCC | 0.41 | – | –
23 | CGAGAGGCGGACGGGACC | ≥ 1 | – | –
24 | TTTTACTTTGAACTGTTT | – | ≥ 1 | –
25 | ATGTTGTCACTGCTCTGG | – | – | remaining target (mRNA or protein) (fraction of control) (INPPL1): 0.92
26 | TCAGGTAGGATGAGTATC | – | 0.89 | –
27 | AAGTCAATACCCACAAGC | – | ≥ 1 | –
28 | GGTAACCTAAGTGCTATT | – | ≥ 1 | –
29 | CGGGCGCCTCGGAAGACC | 0.38 | – | –
30 | GCACCAGCCGCCCACCCT | – | – | remaining target (mRNA or protein) (fraction of control) (INPPL1): 0.3
31 | CCGGGTCCCTGGATGTGC | 0.24 | – | –
32 | AAGTAGTTTTGGTTCCTC | – | – | remaining target (mRNA or protein) (fraction of control) (INPPL1): ≥ 1
33 | CAGATTAATAACTGTAGC | 0.91 | – | –
34 | TCAATATTGTTCCTGTAT | ≥ 1 | – | –
35 | TTGCGGCTCCCTGACCTG | – | – | remaining target (mRNA or protein) (fraction of control) (INPPL1): ≥ 1
